Results taken from paper PMC11126936, “Reactivating Hippo by drug compounds to suppress gastric cancer and enhance chemotherapy sensitivity” (The Journal of Biological Chemistry, 2024).
Values joined by “and” are separate entries in the source; they are usually repeats but may differ in a detail not shown here. Equal values may be shown once. “Also recorded” adds a separate entry of the source. Read-outs that look alike come from different tables or passages of the source.

Experiments:
HGC-27 cells [1] = test: Cell viability assay in HGC-27 cells; format: cell-based, human; details: for inhibition of HGC-27 cell growth / viability: result in words
STRN3–MST2 interaction = target: T1, STRN3–MST2 interaction (Homo sapiens, UniProt Q13188); test: MBP/GST pull-down and Co-IP, STRN3–MST2; format: binding
T1 construct: GST-tagged MST2 (amino acid 1–308), MBP-tagged MST2 (amino acid 1–308); made in house; host or cells: E. coli BL21 Codon plus (DE3)

NUGC-4 cells = test: NUGC-4 cell viability, XMU-MP-1 with cisplatin; format: cell-based, human
[2] = test system: YAP target gene CTGF in HGC-27 cells; test: CTGF mRNA (qPCR) in HGC-27 cells; details: 48 h
MKN-28 cells = test: Killing efficiency in MKN-28 cells; format: cell-based, human
MST2 = target: T2, MST2 (Homo sapiens, UniProt Q13188); test: MST assay, binding to MST2
T2 construct: made in house; host or cells: E. coli BL21 Codon plus (DE3)
T2 sequence (Q13188 1-491): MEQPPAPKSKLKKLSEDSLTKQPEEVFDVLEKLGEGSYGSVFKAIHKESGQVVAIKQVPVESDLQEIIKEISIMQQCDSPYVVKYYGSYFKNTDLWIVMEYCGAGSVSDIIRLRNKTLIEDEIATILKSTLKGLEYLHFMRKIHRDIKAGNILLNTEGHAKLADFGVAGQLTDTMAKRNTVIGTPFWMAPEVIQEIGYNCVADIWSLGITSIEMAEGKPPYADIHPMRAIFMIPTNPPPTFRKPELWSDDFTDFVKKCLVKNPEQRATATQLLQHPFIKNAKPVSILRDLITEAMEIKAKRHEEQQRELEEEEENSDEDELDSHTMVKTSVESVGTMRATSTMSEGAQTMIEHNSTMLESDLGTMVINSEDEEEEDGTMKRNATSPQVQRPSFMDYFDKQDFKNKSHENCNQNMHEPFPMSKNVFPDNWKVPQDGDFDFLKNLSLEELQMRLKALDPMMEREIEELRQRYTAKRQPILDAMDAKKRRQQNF

HEK293A cells = test: DNA repair after etoposide (residual γ-H2AX immunoblot); format: cell-based; details: 20 μM etoposide 2 h, then with or without compound 6 h
HGC-27 cells [3] = test: Colony formation assay in HGC-27 cells; details: about 2 weeks
Protocol: After about 2 weeks incubation, cell colonies were identified by their being stained with 1% crystal violet dye. And colonies with diameters of >1 mm were counted.

MST2^Mut (L33/E35/V41A) = target: T3, MST2^Mut (L33/E35/V41A) (Homo sapiens, UniProt Q13188, E35A/L33A/V41A); test: MST assay, binding to MST2 mutant; details: L33/E35/V41 substituted with alanine
T3 construct: the mutant MBP-tagged MST2 (amino acid 1–308, L33/E35/V41A); MBP; made in house; host or cells: E. coli BL21 Codon plus (DE3)

PP2Aa–STRN3 interaction [4] = target: T4, PP2Aa–STRN3 interaction (Homo sapiens, UniProt P30153); test: GST pulldown assay, PP2Aa–STRN3; format: binding; parameters: GST; SUMO; made in house; host or cells: E. coli BL21 Codon plus (DE3); details: recombinant GST-PP2Aa and His-Sumo-STRN3; up to 10 μM compound
Target sequence in this assay (P30153 8-589): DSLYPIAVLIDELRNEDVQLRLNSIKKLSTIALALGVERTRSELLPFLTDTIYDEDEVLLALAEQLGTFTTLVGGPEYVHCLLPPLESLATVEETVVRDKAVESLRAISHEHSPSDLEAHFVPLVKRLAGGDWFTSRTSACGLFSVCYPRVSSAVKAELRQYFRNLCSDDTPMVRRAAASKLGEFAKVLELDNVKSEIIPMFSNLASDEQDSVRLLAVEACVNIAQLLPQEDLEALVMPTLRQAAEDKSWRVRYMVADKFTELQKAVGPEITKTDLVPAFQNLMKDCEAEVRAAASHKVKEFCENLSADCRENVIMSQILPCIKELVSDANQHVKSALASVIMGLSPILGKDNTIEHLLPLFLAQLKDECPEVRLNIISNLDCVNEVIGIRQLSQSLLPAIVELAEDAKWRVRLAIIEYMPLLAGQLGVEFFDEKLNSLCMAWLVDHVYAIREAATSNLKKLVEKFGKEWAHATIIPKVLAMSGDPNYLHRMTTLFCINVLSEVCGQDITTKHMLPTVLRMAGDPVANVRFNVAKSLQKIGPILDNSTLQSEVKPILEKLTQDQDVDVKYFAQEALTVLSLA

PP2Aa = target: T5, PP2Aa (Homo sapiens, UniProt P30153); test: MST assay, binding to PP2Aa
T5 construct: GST; made in house; host or cells: E. coli BL21 Codon plus (DE3)

PP2Aa–STRN3 interaction [5] = target: T4, PP2Aa–STRN3 interaction; test: Co-IP of HA-PP2Aa and Flag-STRN3 in HEK293A cells; format: cell-based; parameters: expressed in transfected cells; host or cells: HEK293A
Target sequence in this assay (P30153 whole entry): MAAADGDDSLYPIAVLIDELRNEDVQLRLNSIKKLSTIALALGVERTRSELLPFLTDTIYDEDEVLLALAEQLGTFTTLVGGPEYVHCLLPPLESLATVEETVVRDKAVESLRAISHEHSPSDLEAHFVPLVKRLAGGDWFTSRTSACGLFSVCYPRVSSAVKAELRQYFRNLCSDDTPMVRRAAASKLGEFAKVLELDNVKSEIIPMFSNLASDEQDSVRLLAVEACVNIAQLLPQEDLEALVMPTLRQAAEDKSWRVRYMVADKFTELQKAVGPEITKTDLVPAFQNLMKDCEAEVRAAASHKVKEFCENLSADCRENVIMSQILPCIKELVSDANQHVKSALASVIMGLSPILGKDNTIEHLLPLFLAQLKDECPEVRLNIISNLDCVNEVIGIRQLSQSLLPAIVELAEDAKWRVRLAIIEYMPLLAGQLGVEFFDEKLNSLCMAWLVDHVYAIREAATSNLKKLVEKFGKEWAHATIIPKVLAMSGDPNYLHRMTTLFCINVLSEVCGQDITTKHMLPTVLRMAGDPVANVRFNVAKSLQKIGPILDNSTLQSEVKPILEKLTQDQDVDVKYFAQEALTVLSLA

AGS cells = test: Killing efficiency in AGS cells; format: cell-based, human
zebrafish larvae = details: ref [65], [66]; cited from earlier work
[6] = test system: YAP target gene CTGF in GES-1 cells; test: CTGF mRNA (qPCR) in GES-1 cells; details: 48 h
11 different GC cells = test: Cisplatin cell viability in 11 GC cell lines; details: read-out: IC50, cisplatin-sensitive GC cell lines; cell lines with higher pMST1/2 such as NUGC-4
AGS cells xenograft = test: AGS xenograft tumor model; details: intratumoral injection, five consecutive days, vs control
Protocol: Briefly, healthy male 615 mice were maintained in pathogen-free conditions. Mice were first injected with 2 × 10^6 AGS cells/per mouse into their flanks to induce tumor formation. Once the tumor volume reached about 100 mm^3, mice were injected intratumorally with indicted inhibitors for five successive days. Two weeks later, the mice were euthanized and then their tumors were harvested and weighed.

purified PP2Aa (8–589) [7] = target: T6, purified PP2Aa (8–589) (UniProt P30153 8-589); details: both partners purified
T6 construct: As used in ITC and MST

[8] = target: T7, purified MST2 recombinant protein (UniProt Q13188); test: MST; Monolith NT.115, 25 °C, fluorescent-labeled protein; STRN3 and MST2 without CX
T7 sequence (Q13188 1-491, species assumed, looked up): T2 sequence (Q13188 1-491)

purified PP2Aa (8–589) [9] = target: T6, purified PP2Aa (8–589); test: MST; Monolith NT.115, 25 °C, fluorescent-labeled protein; STRN3 to PP2Aa, also with DSF or TH added; details: both partners purified
[10] = target: T8, GST-tagged MST2 (amino acid 1–308) (UniProt Q13188 1-308); details: both partners purified
T8 construct: MST2 kinase, amino acid 1-308; also called GST-MST2; source: E. coli BL21 Coden plus (DE3), purified (GST beads, size-exclusion chromatography)
T8 sequence (looked up): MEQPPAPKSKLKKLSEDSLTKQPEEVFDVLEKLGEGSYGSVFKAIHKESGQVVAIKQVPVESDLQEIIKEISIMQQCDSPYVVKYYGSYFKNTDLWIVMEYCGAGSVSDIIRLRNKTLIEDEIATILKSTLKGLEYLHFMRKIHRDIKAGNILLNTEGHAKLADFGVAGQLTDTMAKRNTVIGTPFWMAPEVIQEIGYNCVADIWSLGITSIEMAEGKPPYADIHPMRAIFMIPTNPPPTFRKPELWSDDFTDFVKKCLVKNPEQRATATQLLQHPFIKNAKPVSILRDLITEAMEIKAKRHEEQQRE

[11] = target: T9, MBP-tagged MST2 (amino acid 1–308) (UniProt Q13188 1-308); details: both partners purified
T9 construct: MST2 kinase, amino acid 1-308; also called MBP-MST2; source: E. coli BL21 Coden plus (DE3), purified (MBP beads, size-exclusion chromatography)
T9 sequence (looked up): T8 sequence (looked up)

[12] = Homo sapiens, HGC-27, cell viability, read-out: IC50 values in HGC-27 cells
[13] = cell viability, read-out: IC50 values in HGC-27 cells

T5 sequence (P30153 8-589): as the sequence (P30153 8-589) above
T6 sequence (P30153 8-589): as above
T3 sequence (Q13188 1-308 L33A/E35A/V41A): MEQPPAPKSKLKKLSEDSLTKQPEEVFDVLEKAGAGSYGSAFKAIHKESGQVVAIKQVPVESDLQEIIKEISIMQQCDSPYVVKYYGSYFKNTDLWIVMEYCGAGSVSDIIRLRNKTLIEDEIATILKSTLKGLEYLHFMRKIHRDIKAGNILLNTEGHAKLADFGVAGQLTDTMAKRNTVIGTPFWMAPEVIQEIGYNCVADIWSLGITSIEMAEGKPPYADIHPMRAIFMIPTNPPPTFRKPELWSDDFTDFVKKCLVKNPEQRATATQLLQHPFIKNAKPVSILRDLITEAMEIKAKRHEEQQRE

COc1ccc(C(=O)O[C@H]2CC[C@@]3(C)[C@@H]4CC[C@H]5[C@]6(O)C[C@H](O)[C@@]7(O)[C@@H](CN8C[C@@H](C)CC[C@H]8[C@@]7(C)O)[C@]6(O)C[C@@]53O[C@]24O)cc1OC [Veratridine]
IC50 (HGC-27 cells [1]; Homo sapiens, HGC-27, read-out: IC50 values in HGC-27 cells): 15.7 µM

Cc1ccc(C(=O)Nc2ccc(S(=O)(=O)[O-])c3cc(S(=O)(=O)[O-])cc(S(=O)(=O)[O-])c23)cc1NC(=O)c1cccc(NC(=O)Nc2cccc(C(=O)Nc3cc(C(=O)Nc4ccc(S(=O)(=O)[O-])c5cc(S(=O)(=O)[O-])cc(S(=O)(=O)[O-])c45)ccc3C)c2)c1.[Na+].[Na+].[Na+].[Na+].[Na+].[Na+] [Suramin Sodium Salt]
inhibition of HGC-27 cell growth / viability (HGC-27 cells [1]): not
STRN3–MST2 interaction in MBP pull-down (STRN3–MST2 interaction): able to disrupt

O=c1c2ccccc2[se]n1-c1ccccc1 [Ebselen]
IC50 (HGC-27 cells [1]; [12]): 27.5 µM

CC(=O)[O][Hg][c]1ccccc1 [Phenylmercuric acetate]
IC50 (HGC-27 cells [1]; cell viability, listed as phenylmercuric acetate, read-out: IC50 values in HGC-27 cells): < 5 µM
IC50 (HGC-27 cells [1]; [13]): 4.05 µM

CN1C(=O)c2sccc2N(C)c2nc(Nc3ccc(S(N)(=O)=O)cc3)ncc21 [XMU-MP-1]
effect of co-treatment on cisplatin sensitivity (NUGC-4 cells): triggered much more resistance to cisplatin

O=C([O-])c1ccccc1-c1c2cc(Br)c(=O)cc-2oc2[c]([Hg+])c([O-])c(Br)cc12.[Na+].[Na+].[OH-] [Merbromin]
IC50 (HGC-27 cells [1]; [13]): 15.2 µM

Oc1cc2c(cc1O)C1c3ccc(O)c(O)c3OCC1(O)C2 (centres unmarked) [HAEMATOXYLIN]
IC50 (HGC-27 cells [1]; [12]): 37.9 µM

COc1cc2c(NC3CCN(CC4CCCCC4)CC3)nc(N3CCCN(C(C)C)CC3)nc2cc1OCCCN1CCCCC1 [UNC0631]
IC50 (HGC-27 cells [1]; [13]): < 5 µM and 2.86 µM

CN1CCCN(C(=O)c2cccc(-c3ccc(C=C4C(=O)Nc5ccc(Cl)cc54)o3)c2)CC1 [CX, CX-6258]
mRNA levels of YAP target gene CTGF [2]: dose-dependently decreased
sensitization of GC cells to cisplatin (MKN-28 cells; 1 μM CX and 20 μM cisplatin): greatly sensitized GC cells to cisplatin
Kd (MST2): 0.339 µM
effect on STRN3–MST2 binding (MST2; in the presence of compound): could not bind with each other in the presence of CX
DNA repair (residual γ-H2AX) (HEK293A cells): markedly attenuated the repair
inhibition of HGC-27 cell growth / viability (HGC-27 cells [1]): significantly inhibit; also recorded: inhibited the cell viability; also recorded: comparable with DSF
colony formation of HGC-27 cells (HGC-27 cells [3]): inhibited
STRN3–MST2 interaction in MBP pull-down (STRN3–MST2 interaction): able to disrupt
binding to MST2^Mut (MST2^Mut (L33/E35/V41A)): failed to bind with CX

CN(C)C(=S)SSC(=S)N(C)C [TH, thiram]
PP2Aa–STRN3 association in GST pulldown (PP2Aa–STRN3 interaction [4]): efficiently disrupt
Kd (PP2Aa): 1.52 µM
binding affinity to PP2Aa relative to that of STRN3 to PP2Aa (PP2Aa): 14 fold
effect on binding of STRN3 to PP2Aa (PP2Aa; compound added): efficiently disrupt
DNA repair (residual γ-H2AX) (HEK293A cells): decreased
PP2Aa–STRN3 interaction in Co-IP (PP2Aa–STRN3 interaction [5]): further validated by Co-IP assay
IC50 (HGC-27 cells [1]; [12]): 0.4 µM
effect of addition of copper ion on suppression of HGC-27 cell viability by the compound (HGC-27 cells [1]; compound-Cu complex vs compound): markedly enhanced
sensitization of GC cells to cisplatin (AGS cells; 0.1 μM TH and 10 μM cisplatin): significantly sensitized GC cells to cisplatin
colony formation of HGC-27 cells (HGC-27 cells [3]): significantly inhibited colony formation
adverse effects in zebrafish larvae (zebrafish larvae): adverse effects
mRNA levels of YAP target gene CTGF [6]: no significant change

N.N.[Cl][Pt][Cl] [cisplatin]
efficiency in killing cancer cells (MKN-28 cells; nontoxic concentrations, alone or combined): about 20%
IC50 (11 different GC cells): < 20 µM
efficiency in killing cancer cells (AGS cells; 0.05 μM DSF, 20 μM cisplatin, alone or combined): about 20%
tumor weight / tumor growth (AGS cells xenograft): modestly lower tumor weights

B1: STRN3 (64–145) (domain or fragment, UniProt Q13033 64-145, looked up)
chain: TIPGILHYIQHEWARFEMERAHWEVERAELQARIAFLQGERKGQENLKKDLVRRIKMLEYALKQERAKYHKLKYGTELNQGD
notes: STRN3 (striatin-3), amino acid 64-145
Kd (purified PP2Aa (8–589) [7]): 11.9 µM
Kd [8]: 0.624 µM
Kd (purified PP2Aa (8–589) [9]): 20.7 µM

B2: STRN3: recombinant His-SUMO-tagged STRN3 (amino acid 64–145), binding partner of PP2Aa and MST2 (protein, UniProt Q13033 64-145, looked up, fragment)
chain: B1 chain
modifications: His-SUMO tag
Kd (MST2): 0.624 µM

B3: His-SUMO-tagged STRN3 (amino acid 64–145) (domain or fragment, UniProt Q13033 64-145, looked up)
chain: B1 chain
notes: STRN3 (striatin-3), amino acid 64-145; Used where the tag is named or used for capture: the GST and MBP pull-downs and the nickel chelate acceptor beads of the AlphaScreen; also called HS-STRN3; His-tagged STRN3
binding result [10]: binds
binding result [11]: binds
